Patent US7943382B2, “Method for inspecting fat-soluble vitamin and/or fat-soluble food factor by saliva analysis” (Mitsubishi Chemical Medience Corporation, priority 2004, dated 2011)

Assays:
[1] = Extraction of CoQ10 from saliva and absorbent depending on deproteinization solvent; format: physicochemical
Protocol: In the method of preparing the specimens in examples 1 and 2, the solvents were weighed using ethanol (90, 75, 50%), isopropanol (90, 75, 50%) or methanol (90, 75, 50%). Saliva of 600 μl, and 600, 1800 and 5400 μl of the solvent respectively were added to 50 mg of an absorbent to have a final concentrations of 50, 75 and 90% (V/V) respectively. The resultant solution was mixed, stirred, and centrifuged at 4° C. by 1000 G to get a supernatant, 20 μl of which was used to analyze CoQ10 by HPLC. As a result, the values shown in the following Table 2 “The CoQ10 concentrations in the supernatant obtained by deproteinizing saliva in three solvents and at three concentration levels (ng/ml)” were obtained. Ethanol, which was not affected by adsorption to proteins even at a concentration of 75% and could efficiently extract, was confirmed to be most suitable.

[2] = Adsorption of CoQ10 in saliva to absorbent materials (no extraction); format: physicochemical
Protocol: In the method of preparing the specimens in example 2, the absorbent materials for saliva were weighed. 50 mg of an absorbent was soaked in 600 μl of saliva, 20 μl of saliva was fractionated to analyze the CoQ10 concentration in saliva transuaded from the absorbent, to which 180 μl of isopropanol was added, mixed, and centrifuged at 4° C. by 1000 G for 5 minutes to remove proteins, and 20 μl of the supernatant was subjected to HPLC. The results of analysis for CoQ10 are shown in Table 1 as “CoQ10 concentrations in saliva which was obtained by steps that 50 mg of the absorbent was soaked in 600 μl of saliva and the saliva was preserved in the interspace of the absorbent”. It took about 3 minutes to secrete 1 ml of parotid saliva for the volunteers who spent little time, and 10 minutes or longer for the volunteers who spent lots of time, therefore it is practically difficult to collect without the absorbent. In this case, the fat-soluble food factors and the fat-soluble vitamins are adsorbed by any absorbent materials for saliva such as polyester, cotton and acetylcellulose. Although it is lowly absorptive, polyurethane fills water in saliva as bound water, so that condensation is caused, resulting in apparently high level (Refer to Table 1). Consequently, the adsorbed component should be extracted. […] That means, a certain amount of saliva should be absorbed to a certain amount of absorbent in the oral cavity.

[3] = CoQ10 level in parotid saliva of non-CoQ10 supplement-ingesting volunteers; format: in vivo, human; details: 55 non-CoQ10 supplement-ingesting volunteers; 2SD 13.5 ng/ml
Source text: Therefore, a standard that can assess an individually suitable intake is required. It can be easily understood from FIG. 7 that the mean level and SD (standard deviation) of CoQ10 in parotid saliva of non-CoQ10 supplement-ingesting volunteers is useful as an example of the standard. A case that a volunteer, who is taking the CoQ10 supplement at an adequate time after meals, ingests it to increase the blood level up to a limit of the CoQ10 level of a non-ingesting volunteer, will be taken as an example for explanation. If a CoQ10 level in parotid saliva is far over the mean value +2SD, the intake is reduced, and if it is between the mean value −2SD and the mean value +2SD, the intake is increased, and the CoQ10 level is repeated inspected in saliva collected again at later dates, allowing the object to be achieved. In addition, the mean level and 2SD in FIG. 7 are obtained from the CoQ10 levels in parotid saliva of the 55 non-CoQ10 supplement-ingesting volunteers, the mean level is 17.0 ng/ml and the 2SD is 13.5 ng/ml.

[4] = Extraction of CoQ10 from absorbent materials with 75% (V/V) ethanol; format: physicochemical
Protocol: In the method of preparing the specimens in example 2, the absorbent materials for saliva and the collection rate by extraction with 75% (V/V) ethanol were weighed. An absorbent of 50 mg was soaked in 600 μl of saliva, to which […] of ethanol was added, mixed, and centrifuged at 4° C. by 1000 G or 5 minutes to remove proteins, and 20 μl of the supernatant was subjected to HPLC. The results of analysis for CoQ10 are shown in Table 3 as “CoQ10 concentrations in saliva which was obtained by steps that 50 mg of the absorbent was soaked in 600 μl of saliva and the saliva was extracted with 1800 μl of ethanol (final concentration: 75%)”. […] Thus, although the fat-soluble components in saliva are adsorbed to the absorbent, the content in a certain amount of saliva can be determined by analyzing the summation of the fat-soluble food factors and the fat-soluble vitamins contained in saliva preserved in the absorbent and interspace.

[5] = 50 mg Acetylcellulose soaked in 600 μl of saliva
[6] = 50 mg Cotton soaked in 600 μl of saliva
[7] = 50 mg Polyester soaked in 600 μl of saliva
[8] = 50 mg Polyurethane soaked in 600 μl of saliva
[9] = Acetylcellulose + ethanol (final concentration 75%)
[10] = Cotton + ethanol (final concentration 75%)
[11] = Polyester + ethanol (final concentration 75%)
[12] = Polyurethane + ethanol (final concentration 75%)

COC1=C(OC)C(=O)C(C/C=C(\C)CC/C=C(\C)CC/C=C(\C)CC/C=C(\C)CC/C=C(\C)CC/C=C(\C)CC/C=C(\C)CC/C=C(\C)CC/C=C(\C)CCC=C(C)C)=C(C)C1=O [CoQ10, Ubidecarenone]
Collection amount of CoQ10 by the solvents ([1]; ethanol 50 V/V %): 3 ng/mL | Collection amount of CoQ10 by the solvents ([1]; ethanol 75 V/V %): 86 ng/mL | Collection amount of CoQ10 by the solvents ([1]; ethanol 90 V/V %): 98 ng/mL | Collection amount of CoQ10 by the solvents ([1]; isopropanol 50 V/V %): 23 ng/mL | Collection amount of CoQ10 by the solvents ([1]; isopropanol 75 V/V %): 19 ng/mL | Collection amount of CoQ10 by the solvents ([1]; isopropanol 90 V/V %): 56 ng/mL | Collection amount of CoQ10 by the solvents ([1]; methanol 50 V/V %): 2 ng/mL | Collection amount of CoQ10 by the solvents ([1]; methanol 75 V/V %): 2 ng/mL | Collection amount of CoQ10 by the solvents ([1]; methanol 90 V/V %): 61 ng/mL | CoQ10 concentration in saliva preserved in the interspace of the absorbent [2, 5]: 25 ng/mL | Collection rate [2, 5]: 7.3% | CoQ10 concentration in saliva preserved in the interspace of the absorbent [2, 6]: 3.4 ng/mL | Collection rate [2, 6]: 10.2% | CoQ10 concentration in saliva preserved in the interspace of the absorbent [2, 7]: 19.6 ng/mL | Collection rate [2, 7]: 58.2% | CoQ10 concentration in saliva preserved in the interspace of the absorbent [2, 8]: 59.8 ng/mL | Collection rate [2, 8]: 178% | CoQ10 concentration in saliva ([2]; Saliva (control), no absorbent): 33.7 ng/mL | Collection rate ([2]; Saliva (control), no absorbent): 100% | mean CoQ10 level in parotid saliva [3]: 17.0 ng/mL | CoQ10 concentration in saliva after extraction [4, 9]: 31.8 ng/mL | Collection rate [4, 9]: 94.3% | CoQ10 concentration in saliva after extraction [4, 10]: 32.2 ng/mL | Collection rate [4, 10]: 95.6% | CoQ10 concentration in saliva after extraction [4, 11]: 34.2 ng/mL | Collection rate [4, 11]: 102% | CoQ10 concentration in saliva after extraction [4, 12]: 32.1 ng/mL | Collection rate [4, 12]: 95.2% | CoQ10 concentration in saliva ([4]; Saliva (control)): 33.7 ng/mL | Collection rate ([4]; Saliva (control)): 100% | collection by extraction, independent of the absorbent material ([4]; ethanol 75% (V/V)): approximately 100%
